For seven compounds, EC50 results are on record in patent publication US20200354426A1 (MEDIMMUNE LIMITED, priority 2016, published 2020).

Numbered stars: 1 amine (or outer) side, 2 acyl side, 3 side chain; on linkers, the order of the positions; unused ones are H or OH. Side chains are listed from the residue outwards. Peptide text beside a SMILES is read from it. * marks the point of attachment. γGlu = O=C(O)[C@H](CCC(=O)[*:2])N[*:1]; Palmitoyl = CCCCCCCCCCCCCCCC(=O)*; Ahx = NCCCCCC(=O)O; βAla = NCCC(=O)O

Assay in all cases: cAMP activity assay in assay medium (assay 1)
Holding throughout (assay type): cell-based

Experiment [1] has as its target Human GLP1R (Homo sapiens, UniProt P43220). Further details: expressed in transfected cells. Particulars: assay medium; Table 4; read-out: hGLP1R EC50. The source says: (§1) Biological Activity of Peptides in Cell-Based cAMP Activity Assay (Assay 1):
(§2) All sample dilutions were made in duplicate.

In experiment [2] the target is T1, Human GlucR (Homo sapiens, UniProt P47871).
T1 construct: expressed in transfected cells
T1 sequence (P47871 26-477): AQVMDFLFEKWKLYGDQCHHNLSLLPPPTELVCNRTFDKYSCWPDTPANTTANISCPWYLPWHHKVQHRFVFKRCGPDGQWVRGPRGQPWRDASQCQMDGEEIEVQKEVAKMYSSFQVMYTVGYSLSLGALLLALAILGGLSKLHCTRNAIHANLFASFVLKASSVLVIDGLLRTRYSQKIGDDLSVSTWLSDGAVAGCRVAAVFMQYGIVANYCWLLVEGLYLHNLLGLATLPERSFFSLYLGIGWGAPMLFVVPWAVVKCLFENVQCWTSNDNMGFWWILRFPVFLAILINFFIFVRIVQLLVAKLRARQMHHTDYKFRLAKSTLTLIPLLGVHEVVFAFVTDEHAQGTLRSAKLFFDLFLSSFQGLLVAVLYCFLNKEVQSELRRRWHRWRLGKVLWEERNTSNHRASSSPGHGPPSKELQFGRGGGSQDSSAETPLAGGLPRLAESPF
Particulars: assay medium; Table 4; read-out: hGlucR EC50.
Excerpt: as §1, §2

Experiment [3] deals with T2, Human GIPr (Homo sapiens, UniProt P48546).
T2 construct: expressed in transfected cells
T2 sequence (P48546 22-466): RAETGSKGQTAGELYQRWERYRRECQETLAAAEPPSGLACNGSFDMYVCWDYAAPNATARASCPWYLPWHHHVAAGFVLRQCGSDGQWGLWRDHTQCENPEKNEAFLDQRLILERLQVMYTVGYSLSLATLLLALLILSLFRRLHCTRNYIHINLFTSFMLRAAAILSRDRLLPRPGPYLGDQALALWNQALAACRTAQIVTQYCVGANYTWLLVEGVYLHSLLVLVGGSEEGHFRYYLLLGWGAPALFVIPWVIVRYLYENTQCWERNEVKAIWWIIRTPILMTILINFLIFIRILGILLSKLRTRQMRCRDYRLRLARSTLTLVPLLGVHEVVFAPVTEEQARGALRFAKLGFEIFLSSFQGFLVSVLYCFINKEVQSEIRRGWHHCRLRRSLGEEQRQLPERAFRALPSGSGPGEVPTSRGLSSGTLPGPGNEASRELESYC
As to conditions: assay medium; Table 4; read-out: hGIPR EC50.
Excerpt: as §1, §2

In general, EC50 refers to the concentration giving half of the maximal effect.

Chain of Human GLP1R (P43220 24-463): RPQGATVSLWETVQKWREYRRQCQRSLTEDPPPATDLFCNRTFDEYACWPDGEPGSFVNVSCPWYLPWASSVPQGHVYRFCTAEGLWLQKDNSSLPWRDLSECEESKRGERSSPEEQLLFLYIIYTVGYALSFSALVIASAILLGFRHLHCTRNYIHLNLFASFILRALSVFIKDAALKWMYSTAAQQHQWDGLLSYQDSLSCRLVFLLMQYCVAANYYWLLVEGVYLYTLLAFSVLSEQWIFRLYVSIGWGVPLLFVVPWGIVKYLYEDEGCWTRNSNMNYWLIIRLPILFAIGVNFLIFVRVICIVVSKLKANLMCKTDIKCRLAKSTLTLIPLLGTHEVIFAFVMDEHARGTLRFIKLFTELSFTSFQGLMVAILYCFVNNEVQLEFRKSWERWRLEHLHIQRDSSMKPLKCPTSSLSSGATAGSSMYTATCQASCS

As for `CCCCCCCCCCCCCCCC(=O)NCCCCCC(=O)NCCCC[C@H](NC(=O)[C@H](CO)NC(=O)[C@H](CC(=O)O)NC(=O)[C@H](CC(C)C)NC(=O)[C@H](Cc1ccc(O)cc1)NC(=O)[C@H](CCC(=O)O)NC(=O)[C@H](CO)NC(=O)[C@H](Cc1ccc(O)cc1)NC(=O)[C@H](CC(=O)O)NC(=O)[C@H](CO)NC(=O)[C@@H](NC(=O)[C@H](Cc1ccccc1)NC(=O)[C@@H](NC(=O)CNC(=O)[C@H](CCC(N)=O)NC(=O)[C@H](CO)NC(=O)[C@@H](N)Cc1c[nH]cn1)[C@@H](C)O)[C@@H](C)O)C(=O)N[C@@H](CCCNC(=N)N)C(=O)N[C@@H](C)C(=O)N[C@@H](C)C(=O)N[C@@H](CC(=O)O)C(=O)N[C@@H](Cc1ccccc1)C(=O)N[C@H](C(=O)N[C@@H](C)C(=O)N[C@@H](Cc1c[nH]c2ccccc12)C(=O)N[C@@H](CC(C)C)C(=O)N[C@@H](CCC(=O)O)C(=O)N[C@@H](CCCNC(=N)N)C(=O)NCC(=O)NCC(N)=O)C(C)C` [g818] (H-HSQGTFTSDYSEYLDSK([Ahx-Palmitoyl])RAADFVAWLERGG-NH2; N-terminus assumed), the results for the EC50 in experiment [1], in experiment [2] and in experiment [3] were 0.021 nM, 8.9 pM and 94 nM, respectively.

Consider `CCCCCCCCCCCCCCCC(=O)NCCC(=O)NCCCC[C@H](NC(=O)[C@H](CO)NC(=O)[C@H](CC(=O)O)NC(=O)[C@H](CC(C)C)NC(=O)[C@H](Cc1ccc(O)cc1)NC(=O)[C@H](CCCCN)NC(=O)[C@H](CO)NC(=O)[C@H](Cc1ccc(O)cc1)NC(=O)[C@H](CC(=O)O)NC(=O)[C@H](CO)NC(=O)[C@@H](NC(=O)[C@H](Cc1ccccc1)NC(=O)[C@@H](NC(=O)CNC(=O)[C@H](CCC(N)=O)NC(=O)[C@H](CO)NC(=O)[C@@H](N)Cc1c[nH]cn1)[C@@H](C)O)[C@@H](C)O)C(=O)N[C@@H](CCCNC(=N)N)C(=O)N[C@@H](C)C(=O)N[C@@H](CCCNC(=N)N)C(=O)N[C@@H](CC(=O)O)C(=O)N[C@@H](Cc1ccccc1)C(=O)N[C@H](C(=O)N[C@@H](C)C(=O)N[C@@H](Cc1c[nH]c2ccccc12)C(=O)N[C@@H](CC(C)C)C(=O)N[C@@H](CCC(=O)O)C(=O)N[C@@H](C)C(=O)NCC(=O)NCC(N)=O)C(C)C` [g819] (H-HSQGTFTSDYSKYLDSK([βAla-Palmitoyl])RARDFVAWLEAGG-NH2; N-terminus assumed), for which the EC50 in experiment [1] was 0.018 nM; in experiment [2] it was 2.34 pM; in experiment [3], 103 nM.

In the case of `CCCCCCCCCCCCCCCC(=O)N[C@@H](CCC(=O)NCCCC[C@H](NC(=O)[C@H](CCCNC(=N)N)NC(=O)[C@H](CO)NC(=O)[C@H](Cc1ccc(O)cc1)NC(=O)[C@H](CC(=O)O)NC(=O)[C@H](CO)NC(=O)[C@@H](NC(=O)[C@H](Cc1ccccc1)NC(=O)[C@@H](NC(=O)CNC(=O)[C@H](CCC(N)=O)NC(=O)[C@H](CO)NC(=O)[C@@H](N)Cc1c[nH]cn1)[C@@H](C)O)[C@@H](C)O)C(=O)N[C@@H](CC(C)C)C(=O)N[C@@H](CC(=O)O)C(=O)N[C@@H](CO)C(=O)N[C@@H](CCC(=O)O)C(=O)N[C@@H](CCCNC(=N)N)C(=O)N[C@@H](C)C(=O)N[C@@H](CCCNC(=N)N)C(=O)N[C@@H](CC(=O)O)C(=O)N[C@@H](Cc1ccccc1)C(=O)N[C@H](C(=O)N[C@@H](C)C(=O)N[C@@H](Cc1c[nH]c2ccccc12)C(=O)N[C@@H](CC(C)C)C(=O)N[C@H](C(=O)N[C@@H](C)C(=O)NCC(=O)NCC(N)=O)C(C)C)C(C)C)C(=O)O` [g820] (H-HSQGTFTSDYSRK([γGlu-Palmitoyl])LDSERARDFVAWLVAGG-NH2; N-terminus assumed), the half-maximal effective concentration (EC50) in experiment [1] turned out to be 0.0339 nM; in experiment [2], 11.7 pM; in experiment [3], 71.1 nM.

As for `CCCCCCCCCCCCCCCC(=O)N[C@@H](CCC(=O)NCCCC[C@H](NC(=O)[C@H](CO)NC(=O)[C@H](CC(=O)O)NC(=O)[C@H](CC(C)C)NC(=O)[C@H](Cc1ccc(O)cc1)NC(=O)[C@H](CCCNC(=N)N)NC(=O)[C@H](CO)NC(=O)[C@H](Cc1ccc(O)cc1)NC(=O)[C@H](CC(=O)O)NC(=O)[C@H](CO)NC(=O)[C@@H](NC(=O)[C@H](Cc1ccccc1)NC(=O)[C@@H](NC(=O)CNC(=O)[C@H](CCC(N)=O)NC(=O)[C@H](CO)NC(=O)[C@@H](N)Cc1c[nH]cn1)[C@@H](C)O)[C@@H](C)O)C(=O)N[C@@H](CCCNC(=N)N)C(=O)N[C@@H](C)C(=O)N[C@@H](CCCNC(=N)N)C(=O)N[C@@H](CC(=O)O)C(=O)N[C@@H](Cc1ccccc1)C(=O)N[C@H](C(=O)N[C@@H](CCC(=O)O)C(=O)N[C@@H](Cc1c[nH]c2ccccc12)C(=O)N[C@@H](CC(C)C)C(=O)N[C@H](C(=O)N[C@@H](C)C(=O)NCC(=O)NCC(N)=O)C(C)C)C(C)C)C(=O)O` [g823] (H-HSQGTFTSDYSRYLDSK([γGlu-Palmitoyl])RARDFVEWLVAGG-NH2; N-terminus assumed), the results for the EC50 in experiment [1], in experiment [2] and in experiment [3] were 0.0973 nM, 9.48 pM and 84.2 nM, respectively.

Regarding `CCCCCCCCCCCCCCCC(=O)N[C@@H](CCC(=O)NCCCC[C@H](NC(=O)[C@H](Cc1ccc(O)cc1)NC(=O)[C@H](CCCCN)NC(=O)[C@H](CO)NC(=O)[C@H](Cc1ccc(O)cc1)NC(=O)[C@H](CC(=O)O)NC(=O)[C@H](CO)NC(=O)[C@@H](NC(=O)[C@H](Cc1ccccc1)NC(=O)[C@@H](NC(=O)CNC(=O)[C@H](CCC(N)=O)NC(=O)[C@H](CO)NC(=O)[C@@H](N)Cc1c[nH]cn1)[C@@H](C)O)[C@@H](C)O)C(=O)N[C@@H](CC(=O)O)C(=O)N[C@@H](CO)C(=O)N[C@@H](CCCNC(=N)N)C(=O)N[C@@H](CCCNC(=N)N)C(=O)N[C@@H](C)C(=O)N[C@@H](CCCNC(=N)N)C(=O)N[C@@H](CC(=O)O)C(=O)N[C@@H](Cc1ccccc1)C(=O)N[C@H](C(=O)N[C@@H](CCC(=O)O)C(=O)N[C@@H](Cc1c[nH]c2ccccc12)C(=O)N[C@@H](CC(C)C)C(=O)N[C@@H](CCC(=O)O)C(=O)N[C@@H](C)C(=O)NCC(=O)NCC(N)=O)C(C)C)C(=O)O` [g824] (H-HSQGTFTSDYSKYK([γGlu-Palmitoyl])DSRRARDFVEWLEAGG-NH2; N-terminus assumed), the figures for the EC50 in experiment [1], in experiment [2] and in experiment [3] were 0.0471 nM, 1.05 pM and 57.4 nM, respectively.

With `CCCCCCCCCCCCCCCC(=O)NCCCCCC(=O)NCCCC[C@H](NC(=O)[C@H](CO)NC(=O)[C@H](CC(=O)O)NC(=O)[C@H](CC(C)C)NC(=O)[C@H](Cc1ccc(O)cc1)NC(=O)[C@H](CCC(=O)O)NC(=O)[C@H](CO)NC(=O)[C@H](Cc1ccc(O)cc1)NC(=O)[C@H](CC(=O)O)NC(=O)[C@H](CO)NC(=O)[C@@H](NC(=O)[C@H](Cc1ccccc1)NC(=O)[C@@H](NC(=O)CNC(=O)[C@H](CCC(N)=O)NC(=O)[C@H](CO)NC(=O)[C@@H](N)Cc1c[nH]cn1)[C@@H](C)O)[C@@H](C)O)C(=O)N[C@@H](CCCNC(=N)N)C(=O)N[C@@H](C)C(=O)N[C@@H](CCCNC(=N)N)C(=O)N[C@@H](CC(=O)O)C(=O)N[C@@H](Cc1ccccc1)C(=O)N[C@H](C(=O)N[C@@H](C)C(=O)N[C@@H](Cc1c[nH]c2ccccc12)C(=O)N[C@@H](CC(C)C)C(=O)N[C@@H](CCC(=O)O)C(=O)N[C@@H](CCCNC(=N)N)C(=O)NCC(=O)NCC(=O)O)C(C)C` [g826] (H-HSQGTFTSDYSEYLDSK([Ahx-Palmitoyl])RARDFVAWLERGG-OH; N-terminus assumed), the figures for the concentration giving a half-maximal response (EC50) in experiment [1], in experiment [2] and in experiment [3] were 0.0293 nM, 4.23 pM and 58 nM, respectively.

In the case of `CCCCCCCCCCCCCCCC(=O)N[C@@H](CCC(=O)NCCCC[C@H](NC(=O)[C@H](CO)NC(=O)[C@H](CC(=O)O)NC(=O)[C@H](CC(C)C)NC(=O)[C@H](Cc1ccc(O)cc1)NC(=O)[C@H](CCC(=O)O)NC(=O)[C@H](CO)NC(=O)[C@H](Cc1ccc(O)cc1)NC(=O)[C@H](CC(=O)O)NC(=O)[C@H](CO)NC(=O)[C@@H](NC(=O)[C@H](Cc1ccccc1)NC(=O)[C@@H](NC(=O)CNC(=O)[C@H](CCC(N)=O)NC(=O)[C@H](CO)NC(=O)[C@@H](N)Cc1c[nH]cn1)[C@@H](C)O)[C@@H](C)O)C(=O)N[C@@H](CCCNC(=N)N)C(=O)N[C@@H](C)C(=O)N[C@@H](CCCNC(=N)N)C(=O)N[C@@H](CC(=O)O)C(=O)N[C@@H](Cc1ccccc1)C(=O)N[C@H](C(=O)N[C@@H](CCC(=O)O)C(=O)N[C@@H](Cc1c[nH]c2ccccc12)C(=O)N[C@@H](CC(C)C)C(=O)N[C@H](C(=O)N[C@@H](C)C(=O)NCC(=O)NCC(N)=O)C(C)C)C(C)C)C(=O)O` [g835] (H-HSQGTFTSDYSEYLDSK([γGlu-Palmitoyl])RARDFVEWLVAGG-NH2; N-terminus assumed), the results for the EC50 in experiment [1], in experiment [2] and in experiment [3] were 0.191 nM, 424 pM and 97.2 nM, respectively.
